# PMC12717099, “Peptidoglycan recruitment by a penicillin binding protein” (Nature Communications, 2025)
# What was measured:
# [1] = tested on: E. faecium D344SRF pCWR624Δpbp5_pbp5_V1; assay: MIC by broth microdilution, pbp5_V1; format: cell-based, Enterococcus faecium; details: strain pbp5_V1 (N523A); 37 °C, 20 h; n=3
# Description: (§1) The synthetic genes were purchased from GeneWiz (South Plainfield, NJ). The ribosome binding site sequence AGGAGG (Shine-Dalgarno), and a string of five A’s followed by the sequence […], that corresponds to the first 15 bp found in pbp5 from E. faecium C68 were added upstream of the START codon. The terminator sequence […] was added downstream of the STOP codon. BamHI restriction sites were added to the flanking 5′ and 3′ ends. The synthetic genes were inserted into the vector pCWR624Δpbp5. This vector was derived from pCWR624[10], in which the pbp5 gene from D366 was excised by digestion with BamHI followed by re-ligation of the vector, allowing subsequent insertion of modified synthetic pbp5s into the BamHI site downstream of ftsWEfm and psr from E. faecium C68[10]. The synthetic genes were inserted in a BamHI site located downstream of psr. The proper orientation was confirmed by PCR amplification using the forward primer OR_pbp5_FOR_1 (5′-[…]-3′) and the reverse primer OR_pbp5_REV_1 (5′-[…]-3′). Plasmids were sequence verified for the specific binding site mutations. The resulting constructions were electroporated into the natural pbp5(-) mutant E. faecium D344SRF with a selection on brain heart infusion agar (BHI) plates containing kanamycin (1500 µg/ml).
# (§2) E. faecium strains were streaked fresh from −80 °C stored glycerol stocks onto brain heart infusion (BHI) agar plates and incubated for 18 h at 37 °C. Strains harboring the plasmid derivatives were grown under antibiotic pressure on agar plates containing kanamycin at 1500 µg/ml. A single colony was inoculated into BHI or BHI-kanamycin (1500 µg/ml) for overnight cultures (18 h).
# (§3) MIC determination was performed using a standard broth microdilution technique in duplicate from independent cultures. Overnight cultures were inoculated into 3 ml of BHI or BHI-kanamycin (1500 µg/ml) broth in a dilution of 1:100 and incubated until an OD600 of ~0.5 was reached. Cultures were diluted 1:1000 and inoculated into the 96-well plates with the corresponding antibiotics to be tested. Plates were incubated at 37 °C for 20 h and read by eye. […]
# [2] = tested on: E. faecium D344SRF, Wild Type; assay: MIC by broth microdilution, Wild Type; format: cell-based, Enterococcus faecium; details: strain Wild Type; BHI broth microdilution, 37 °C, 20 h, read by eye; n=3
# Description: as §2
# MIC determination was performed using a standard broth microdilution technique in duplicate from independent cultures. Overnight cultures were inoculated into 3 ml of BHI or BHI-kanamycin (1500 µg/ml) broth in a dilution of 1:100 and incubated until an OD600 of ~0.5 was reached. Cultures were diluted 1:1000 and inoculated into the 96-well plates with the corresponding antibiotics to be tested. Plates were incubated at 37 °C for 20 h and read by eye. The MICs were defined as the lowest antibiotic concentration that inhibited growth.
# [3] = tested on: E. faecium D344SRF pCWR624Δpbp5_pbp5_V3; assay: MIC by broth microdilution, pbp5_V3; format: cell-based, Enterococcus faecium; details: strain pbp5_V3 (loop 625-631); 37 °C, 20 h; n=3
# Description: as §1, §2, §3
# [4] = tested on: E. faecium D344SRF pCWR624Δpbp5_pbp5_V5; assay: Disk diffusion assay, pbp5_V5; format: cell-based, Enterococcus faecium; details: strain pbp5_V5 (Q396A_E397A); 37 °C, 24 h; n=3
# Description: as §1, §2
# (§4) Antibiotic disks used were manufactured by BD BBL^TM. Disk diffusion assays were performed according to the Clinical and Laboratory Standards Institute (CLSI) guidance. Overnight cultures were inoculated into 3 ml of BHI or BHI-kanamycin (1500 µg/ml) broth with a dilution of 1:100 and incubated until an OD600 of ~0.5 was reached. […] The plates were incubated at 37 °C and the zones of inhibition were measured after 24 h. […]
# [5] = tested on: E. faecium D344SRF pCWR624Δpbp5_pbp5_V5; assay: MIC by broth microdilution, pbp5_V5; format: cell-based, Enterococcus faecium; details: strain pbp5_V5 (Q396A_E397A); 37 °C, 20 h; n=3
# Description: as §1, §2, §3
# [6] = tested on: E. faecium D344SRF pCWR624Δpbp5_pbp5_V1; assay: Disk diffusion assay, pbp5_V1; format: cell-based, Enterococcus faecium; details: strain pbp5_V1 (N523A); 37 °C, 24 h; n=3
# Description: as §1, §2, §4
# PBP5 (PBP5_37-678) = assay: NMR chemical shift perturbation titration (2D [1H,15N] TROSY, 2D [1H,13C] ILV methyl HMQC) of stem peptides / PG into PBP5; format: binding, Enterococcus faecium; details: NH CSP titration up to 1:80 PBP5:SP1, not saturated: KD overestimated (upper bound); 10 mM MES pH 5.8, 25 mM NaCl, 308 K; read-out: KD, mean±std of residue-specific values
# Description: Data was processed using Topspin 4.1.4 (Bruker) and analyzed using NMRFAM-SPARKY 1.3 and Poky (build number 20240829)[20],[21]. The sequence-specific backbone assignment of PBP5 is publicly available at BMRBID 51690.
# SPs (SP1 to SP7) were titrated into 0.5 mM (^2H,^15N)-labeled and 0.1 mM (^2H,^15N)/^13C ILV labeled PBP5 at molar ratios of 0:1, 5:1, 10:1, 20:1, 40:1, 60:1, and 80:1 (stem peptide/SP:PBP5; molar ratios). 2D [^1H,^15N] TROSY or 2D [^1H,^13C] HMQC spectra were recorded for each titration point. SPs were solubilized in NMR buffer. Chemical shift perturbations (Δδ) between PBP5 and SP bound PBP5 spectra were calculated using Eq. 1,1 Δδppm=ΔδH^2+ΔδX/Y^2 where, X is ^15N or ^13C and Y is the constant i.e., 10 for ^15N and 4 for ^13C.
# Residues with significant CSPs were identified by calculating the standard deviation of all CSPs (σ), then excluding any CSPs larger than average+2σ, recalculating σ as a new corrected σ0, and then repetitively removing CSPs above 2σ0 until no additional CSPs can be removed. CSPs above ≥2σ2 was the statistical threshold for ^1H/^15N backbone CSP analysis and ≥2xσ1 for ^1H/^13C methyl ILV data for the interaction of SP1 with PBP5. The same threshold values were used for all other peptides to allow for direct comparison with the SP1/PBP5 interaction. The identical significance analysis was also performed for PenG/ceftaroline saturated PBP5 (1:8 molar ratio of PBP5 to β-lactam antibiotics was used to ensure saturation of an extended time period needed for the SP titrations) SP interaction studies; CSPs above ≥2σ3 was the statistical threshold for ^1H/^15N backbone CSP analysis and ≥2xσ2 for ^1H/^13C methyl ILV data to identify all residues with a statistically significant change in its chemical shift upon SP interaction.
# Residue specific KD values were calculated by using Eq. 2[23],2 CSPobs=CSPmax/2PP+S+KD−P+S+KD^2−4[S][P] where P and S are the concentration of PBP5 and SP1, respectively. CSPobs is the experimentally observed chemical shift value and CSPmax is the largest experimentally observed chemical shift value of the residue. […] The lack of saturation was due to the limited amount of available SP peptide due to their difficult synthesis. Residues used for KD calculation were common residues with statistically significant CSPs in the interaction studies of SP1 and SP2 with PBP5 at a 1:80 ratio.
Molecule,MIC (µg/ml) [Range] [1],MIC (µg/ml) [Range] [2],MIC (µg/ml) [Range] [3],Zone Size (mm) [Range] [4],MIC (µg/ml) [Range] [5],Zone Size (mm) [Range] [6],Kd (PBP5 (PBP5_37-678))
"CO/N=C(\C(=O)N[C@@H]1C(=O)N2C(C(=O)O)=C(CSc3nc(=O)c(=O)[nH]n3C)CS[C@H]12)c1csc(N)n1 [Ceftriaxone, ceftriaxone]",3200 [1600-3200] µg/ml,50 [25-100] µg/ml,25 [25] µg/ml,0 [0] mm,> 3200 [>3200] µg/ml,0 [0] mm,
D-Lac-L-Ala-D-iGln-L-Lys(D-iAsn)-D-Ala-D-Ala [SP1],,,,,,,~4 mM
